Target: T1, Dual specificity protein phosphatase 1 (Homo sapiens, UniProt P28562)
T1 sequence (P28562 whole entry): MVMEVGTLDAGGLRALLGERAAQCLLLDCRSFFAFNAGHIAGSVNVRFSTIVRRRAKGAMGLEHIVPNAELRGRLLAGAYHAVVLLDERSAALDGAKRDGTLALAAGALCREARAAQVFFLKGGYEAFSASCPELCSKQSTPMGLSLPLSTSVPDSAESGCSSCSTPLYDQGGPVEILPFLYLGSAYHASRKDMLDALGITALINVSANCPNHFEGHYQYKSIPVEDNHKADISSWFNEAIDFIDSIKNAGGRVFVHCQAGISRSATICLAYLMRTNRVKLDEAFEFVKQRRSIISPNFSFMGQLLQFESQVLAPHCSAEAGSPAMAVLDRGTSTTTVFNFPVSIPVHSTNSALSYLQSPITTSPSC
Experiment: reproducibility of MKP-1 inhibition curves – biochemical, reproducibility testing, probe assessment, dose response (AID 563)

| SMILES | IC50 [µM] |
| --- | --- |
| [O-]/[N+](=C/c1ccc(F)cc1)c1ccccc1 [(E)-(4-fluorobenzylidene)(phenyl)azane oxide] | > 50 |
| N#Cc1c(NC(=O)c2ccc(Br)o2)n(-c2ccccc2)c2nc3ccccc3nc12 [5-bromanyl-N-(3-cyano-1-phenyl-pyrrolo[3,2-b]quinoxalin-2-yl)furan-2-carboxamide] | 24.4 |
| CCc1ccc(NC(=O)CSc2nc3ccccc3c(=O)n2CCN2CCOCC2)cc1 [MLS000095236] | > 50 |
| CC(C)Cn1c(N)c(C(=O)COC(=O)c2cc(-c3ccco3)nc3ccccc23)c(=O)n(C)c1=O [2-(2-furanyl)-4-quinolinecarboxylic acid [2-[4-amino-1-methyl-3-(2-methylpropyl)-2,6-dioxo-5-pyrimidinyl]-2-oxoethyl] ester] | 24.2 |
| CCCSc1nnc(NC(=O)c2sc3nc(-c4cccs4)ccc3c2N)s1 [3-amino-N-(5-propylsulfanyl-1,3,4-thiadiazol-2-yl)-6-thiophen-2-ylthieno[2,3-b]pyridine-2-carboxamide] | 21.8 |
| O=C1c2ccccc2-c2onc3ccc(NCCCn4ccnc4)c1c23 [SMR000044769] | 27.7 |
| Cc1cc(NC(=O)c2ccc(S(=O)(=O)N3CCCC3)cc2)nc2c1c(=O)oc1ccccc12 [MLS000091355] | 24.9 |
| Cn1ncnc2c(=O)n(C)c(=O)nc1-2 | 0.743 |
| O=C(NC1(O)C(=O)c2ccccc2C1=O)c1ccccc1 [N-(2-hydroxy-1,3-dioxo-2-indenyl)benzamide] | 48.2 |
| N#Cc1c(N2CCCC2)nc(N)c2c(N)nc(N3CCCC3)cc12 [SMR000061605] | 18.8 |
| COc1ccc(Cn2c(C)nc3c(c2=O)c2nc4ccccc4nc2n3Cc2ccco2)cc1 [MLS000079944] | 21.6 |
| O=C(OC1CCCCC1)c1ccc2c(c1)C1C=CCC1C(C(=O)O)N2 (stereo not given) [SMR000019385] | 14.5 |
| COC(=O)c1ccccc1NC(=O)CN1C(=O)C2CCCN2c2ncc(Cl)cc21 (stereo not given) [MLS000094302] | 46.2 |
| [O-]/[N+](=C\c1ccc(OC(F)F)cc1)c1ccccc1 [1-[4-(difluoromethoxy)phenyl]-N-phenylmethanimine oxide] | > 50 |
| N#Cc1c(N)sc(=S)c2c1CCN(Cc1ccccc1)C2 [3-Amino-7-benzyl-1-thioxo-5,6,7,8-tetrahydro-1H-thiopyrano[3,4-c]pyridine-4-carbonitrile] | 7.34 |
| CCCCCC#CCC#CCC#CCC#CCCCC(=O)O | 12.1 |
| Nc1c(N2CCCC2)cc(Cl)c2nonc12 [(7-chloro-5-pyrrolidino-benzofurazan-4-yl)amine] | > 50 |
| CCCCn1c(SCC(=O)c2ccc(OC)cc2OC)nc2cc(S(N)(=O)=O)ccc21 [1-butyl-2-[2-(2,4-dimethoxyphenyl)-2-oxidanylidene-ethyl]sulfanyl-benzimidazole-5-sulfonamide] | 45.6 |
| CC1=C(/C=C/C(C)=C/C=C/C(C)=C/C(=O)O)C(C)(C)CCC1 [ALL-TRANS-RETINOIC ACID] | 42.9 |
| O=C1C=C(NCc2ccc(Cl)c(Cl)c2)CC1 [3-[(3,4-dichlorobenzyl)amino]cyclopent-2-en-1-one] | > 50 |
| CCOc1ccc(-c2cc3nc(C4CCN(C(=O)OC(C)(C)C)CC4)c(C(=O)O)cn3n2)cc1 [2-(4-ethoxyphenyl)-5-[1-[(2-methylpropan-2-yl)oxy-oxomethyl]-4-piperidinyl]-6-pyrazolo[1,5-a]pyrimidinecarboxylic acid] | 30.5 |
| [O-]/[N+](=C\c1ccncc1)c1ccccc1 | > 50 |
| O=C1C=Cc2ccccc2C1=O [1,2-dihydronaphthalene-1,2-dione] | 36.4 |
| CCOc1cc(/C=C(/C#N)c2ccc(F)cc2)ccc1OCc1ccc(C(=O)O)o1 [5-[[4-[(E)-2-cyano-2-(4-fluorophenyl)ethenyl]-2-ethoxyphenoxy]methyl]furan-2-carboxylic acid] | 36.7 |
| CCn1nc(-c2ccccc2)nc2c(=O)n(C)c(=O)nc1-2 [1-Ethyl-6-methyl-3-phenyl-1H-pyrimido[5,4-e][1,2,4]triazine-5,7-dione] | 1.19 |

| SMILES | IC50 [µM] |
| --- | --- |
| Nc1nc2c(s1)CCc1c-2cnn1-c1ccccc1 [MLS000085948] | > 50 |
| CCOc1ccc2noc3c2c1C(=O)c1ccccc1-3 [MLS000106837] | > 50 |
| CCCCNC(=O)c1c(N)n(CCCOC)c2nc3ccccc3nc12 [2-amino-N-butyl-1-(3-methoxypropyl)-3-pyrrolo[3,2-b]quinoxalinecarboxamide] | 47.1 |
| COc1cc(/C=C(/C#N)c2ccc(F)cc2)ccc1OCc1ccc(C(=O)O)o1 [5-({4-[2-cyano-2-(4-fluorophenyl)vinyl]-2-methoxyphenoxy}methyl)-2-furoic acid] | > 50 |
| CCCCn1c(NC(=O)c2ccccc2)c(C#N)c2nc3ccccc3nc21 [SMR000060333] | 30 |
| COCCCn1c(N)c(C(=O)NCCC(C)C)c2nc3ccccc3nc21 [MLS000041744] | > 50 |
| Cc1ccc(/C=C/C2=Cc3c(sc(NC(=O)CSc4nnc(N)[nH]4)c3C#N)C(C)(C)C2)o1 [2-[(5-azanyl-1H-1,2,4-triazol-3-yl)sulfanyl]-N-[3-cyano-7,7-dimethyl-5-[(E)-2-(5-methylfuran-2-yl)ethenyl]-6H-1-benzothiophen-2-yl]ethanamide] | 17.8 |
| O=C(Nc1ccc2nc(-c3ccco3)c(-c3ccco3)nc2c1)N1CCCCCC1 | 26 |
| CCn1c(SCC(=O)Nc2ccc3c(c2)c2ccccc2n3CC)nnc1-c1ccco1 [MLS000050867] | 20.3 |
| O=C(c1cccs1)c1no[n+]([O-])c1C(=O)c1cccs1 [(5-oxidanidyl-4-thiophen-2-ylcarbonyl-1,2,5-oxadiazol-5-ium-3-yl)-thiophen-2-yl-methanone] | 6.39 |
| Cc1c(N=c2c(=O)c3ccccc3c2=O)c(=O)n(-c2ccccc2)n1C [MLS000105950] | 26.2 |
| O=C1C(=C2C(=O)c3ccccc3C2=O)Nc2ccccc21 [MLS000071738] | > 50 |
| O=C1Nc2ccccc2SC(c2ccccc2)C1O (stereo not given) [3-hydroxy-2-phenyl-2,3-dihydro-1,5-benzothiazepin-4(5H)-one] | 33.2 |
| CC(=O)[C@@H]1[C@@H]2C(=O)N(c3ccc(F)c(Cl)c3)C(=O)[C@@H]2C2c3ccccc3C=CN21 (stereo not given in full) [MLS000040594] | > 50 |
| Cc1nc2cc(-c3cccc(F)c3)nn2c(C)c1CCC(=O)N1CCC2(CC1)OCCO2 [1-(1,4-dioxa-8-azaspiro[4.5]decan-8-yl)-3-[2-(3-fluorophenyl)-5,7-dimethyl-6-pyrazolo[1,5-a]pyrimidinyl]-1-propanone] | > 50 |
| COc1ccc(-c2cc3nc(C4CCN(C(=O)OC(C)(C)C)CC4)c(C(=O)O)cn3n2)cc1 [2-(4-methoxyphenyl)-5-[1-[(2-methylpropan-2-yl)oxy-oxomethyl]-4-piperidinyl]-6-pyrazolo[1,5-a]pyrimidinecarboxylic acid] | 33.9 |
| FC(F)(F)c1ccc(N2CCOCC2)c(Nc2nc3ccccc3n3cnnc23)c1 [MLS000093276] | > 50 |
| CCn1nc(-c2cccs2)nc2c(=O)n(C)c(=O)nc1-2 [1-ethyl-6-methyl-3-thiophen-2-yl-pyrimido[5,4-e][1,2,4]triazine-5,7-dione] | 1.24 |
| COc1ccc2noc3c2c1C(=O)c1ccccc1-3 [MLS000106874] | 46.1 |
| COc1ccc(-n2c(NC(=O)c3ccco3)c(C#N)c3nc4ccccc4nc32)cc1 [MLS000079925] | 34.1 |
| Cc1cc(C)n2c(SCC(=O)N3CCN(S(=O)(=O)c4ccc(Cl)cc4)CC3)nnc2n1 [1-[4-(4-chlorophenyl)sulfonyl-1-piperazinyl]-2-[(5,7-dimethyl-[1,2,4]triazolo[4,3-a]pyrimidin-3-yl)thio]ethanone] | 48.8 |
| CC(C)(C)N1C(=O)Cc2c1nc(N)c1c(N)nc(N3CCCCC3CO)c(C#N)c21 (stereo not given) [5,6-bis(azanyl)-3-tert-butyl-8-[2-(hydroxymethyl)piperidin-1-yl]-2-oxidanylidene-1H-pyrrolo[2,3-c][2,7]naphthyridine-9-carbonitrile] | > 50 |
| COc1ccc(Br)cc1C=c1sc2nc(-c3ccco3)nn2c1=O [5-[(5-bromanyl-2-methoxy-phenyl)methylidene]-2-(furan-2-yl)-[1,3]thiazolo[3,2-b][1,2,4]triazol-6-one] | 12.8 |
| Cc1cccc(NC(=O)c2cc(NC(=O)C3CCCCC3C(=O)O)ccc2N2CCCCC2)c1 (stereo not given) [2-({[3-{[(3-methylphenyl)amino]carbonyl}-4-(1-piperidinyl)phenyl]amino}carbonyl)cyclohexanecarboxylic acid] | > 50 |
| O=C(Nc1ccccc1)c1ccc2nc(-c3ccco3)c(-c3ccco3)nc2c1 [2,3-di-2-furyl-N-phenyl-6-quinoxalinecarboxamide] | 35.7 |

From BindingDB's records for doi:10.7270/Q2QR4VH9 (University of Pittsburgh, 2006)
